# Where two headings read alike, the source gives them in different places.
# Key:
# [1] = tested on: HIV virus (isolate LAV1-BRU); assay: inhibition of the cytopathogenic effect (CPE) of the HIV virus toward a continuous line of T4 lymphocytes by colorimetric assay with MTT; format: cell-based
# [2] = tested on: HIV virus (isolate LAV1-BRU); assay: selectivity index / protection index (CD50/ED50 ratio); format: cell-based
# Source text: Determination of the selectivity index
# The higher the difference between the CD50 and the ED50, the more useful will be the product. This difference is quantified by the selectivity index (the CD50/ED50 ratio).
# [3] = tested on: HIV virus; viral reverse transcriptase; assay: inhibition of viral replication by microassay of the enzymatic activity of the viral reverse transcriptase in CEM culture supernatants; format: cell-based; parameters: unit not given here
# [4] = HPLC assay of AZT in the brain of mice after oral administration; format: in vivo, Swiss mouse
# Method: The assays are conducted on the Swiss mouse.
# The compounds are dissolved in distilled water (or suspended in distilled water) before being administered by gavage; the assays are performed by administering each compound to 3 mice. The control consists of 3 mice receiving the equivalent of the vehicle, i.e. the same volume of distilled water as the treated mice. The brains are removed 1 hour after garage, homogenized in an acetonitrile-water (3/1) mixture, centrifuged and the supernatant is taken for the HPLC assay.
# In a preliminary trial, favourable experimental conditions for the assays of the different compounds by HPLC are determined.
# In the table which follows, each line corresponds to an assay series.
# [5] = in vitro; conditions: human, cem-c113 cells
# [6] = 31P-NMR study of the interactions between the phosphotriesters and model membranes (transmembrane transport)
smiles,measurement,setting,value
"CCCCCCCCCCCCCCCCOP(=O)(OC[C@H]1OC(O)[C@@H](O)[C@@H](O)[C@@H]1O)OC[C@H]1O[C@@H](n2cc(C)c(=O)[nH]c2=O)C[C@@H]1N=[N+]=[N-] (stereo partly drawn) [CT 7627, 6-D-mannosyl hexadecyl 5'-(3'-azido)-thymidinyl phosphate]",EC50,"[1]; Human immunodeficiency virus 1, CEM-c113, read-out: ED50 (protective dose 50%), D7 of culture, CEM-C113 cells",< 200 nM
same,EC50,"[1]; Human immunodeficiency virus 1, CEM-c113, read-out: ED50 (protective dose 50%), D11 of culture, CEM-C113 cells",300 nM
same,EC50,"[1]; Human immunodeficiency virus 1, CEM-c113, read-out: ED50 (protective dose 50%), D19 of culture, CEM-C113 cells",500 nM
same,EC50,"[1]; Human immunodeficiency virus 1, CEM-c113, read-out: ED50 (protective dose 50%), D22 of culture, CEM-C113 cells",400 nM
same,"PROTECTION INDICES (P.I.), CD50/ED50",[2],> 13
same,reverse transcriptase activity in culture supernatant,"[3]; 0.2 uM, D7",4000
same,reverse transcriptase activity in culture supernatant,"[3]; 0.2 uM, D11",4700
same,reverse transcriptase activity in culture supernatant,"[3]; 0.2 uM, D18",1700
same,reverse transcriptase activity in culture supernatant,"[3]; 0.2 uM, D19",11000
same,reverse transcriptase activity in culture supernatant,"[3]; 0.2 uM, D22",24000
same,reverse transcriptase activity in culture supernatant,"[3]; 0.2 uM, D26",73000
same,reverse transcriptase activity in culture supernatant,"[3]; 1 uM, D7",2000
same,reverse transcriptase activity in culture supernatant,"[3]; 1 uM, D11",1100
same,reverse transcriptase activity in culture supernatant,"[3]; 1 uM, D18",500
same,reverse transcriptase activity in culture supernatant,"[3]; 1 uM, D19",1400
same,reverse transcriptase activity in culture supernatant,"[3]; 1 uM, D22",3900
same,reverse transcriptase activity in culture supernatant,"[3]; 1 uM, D26",20000
same,"Phosphotriester detected by HPLC per gram of brain, individual value","[4]; 25 mg/kg oral, 1 hour, AZT equivalent micromol per mouse: CT 6651, CT 7627 0.68, CT 7625 0.64",0 µg
same,concentration at 1 h,"[4]; mouse, brain, po, 25 mg/kg, read-out: Phosphodiester detected by HPLC per gram of brain, individual value",2050 ng/g
same,CC50 at 168 h,[5],2600 nM
same,CC50 at 264 h,[5],2600 nM
same,CC50 at 456 h,[5],2500 nM
same,CC50 at 528 h,[5],25000 nM
same,interaction with / location in unilamellar vesicles (in words),[6],interacts only with the external lipid layer of the unilamellar vesicles
